In patent publication US11419843B2, “Small molecule BCL-2 functional converters as cancer therapeutics” (Oregon State University, priority 2016, dated 2022):
“Also recorded” adds a separate entry of the source. Read-outs that look alike come from different tables or passages of the source.

Key:
[1] = test system: WT MEF, Bax−/− MEF, Bak−/− MEF and Bax−/− Bak−/− MEF cells; experiment: Viability of MEF cells with or without Bax or Bak; format: cell-based, mouse; conditions: 24 h, 10% serum; for Bax/Bak dependence of effect on MEF viability: 1 μM, WT, Bak−/− and DKO MEF; for viability at 1 µM: Mus musculus, MEF, normalized to vehicle
Procedure: WT MEF, BAX^−/− MEF, BAK^−/− MEF and Bax^−/− Bak^−/− MEF cells were treated with MTX at 1 μM concentration for 24 h in 10% serum conditions. Viability was assessed using the Glo assay. MTX treatments were normalized to 100% of Vehicle.
FIG. 17C WT MEF, Bax−/− MEF, Bak−/− MEF and Bax−/− Bak−/− MEF cells were treated with 1 μM BFC1108 for 24 h in 10% FBS medium and viability was assessed using cell titer glo assay.
WT MEF, Bax^−/− MEF, Bak^−/− MEF and Bax^−/− Bak^−/− MEF cells were treated with 1 μM BFC1103 for 24 h in 10% FBS medium and viability was assessed using cell titer glo assay.

[2] = test system: normal mammary epithelial cells (MCF-10A and HMECs); experiment: Viability of normal mammary epithelial cells; format: cell-based, human
Text: FIG. 9F depicts viability of methotrexate treated breast cancer cell line (ZR-75-1) in comparison to normal mammary epithelial cells (MCF-10A and HMECs).

[3] = test system: MDA-MB-468 cells with or without Bcl-2 expression; experiment: Viability of MDA-MB-468 cells with Bcl-2 knockdown; format: cell-based, human; conditions: 10% FBS; for Effect of Bcl-2 knockdown on viability effect in MDA-MB-468 cells: 48 h
Procedure: For Bcl-2 knockdown experiments, MDA-MB-468 cells were seeded at 4,000 cells per well in a 96 well black plate. The day after seeding, cells were subjected to Bcl-2 knockdown with 25 ng siRNAs (Dharmacon Research, Lafayette, Colo.) or 25 ng control siRNA against luciferase (Dharmacon Research, Lafayette, Colo.) using Dharmafect as transfecting reagent. After 72 h of transfection time, cells were treated with indicated compounds for 48 h and viability was assayed with CellTiter Glo Luminescent Cell Viability Assay (Promega, Madison, Wis.).

[4] = test system: Bcl-2 low and high expressing Jurkat lymphoma cells (Jurkat/Vector, Jurkat/Bcl-2); experiment: Cell viability in Bcl-2 low and high expressing Jurkat cells; format: cell-based, human
[5] = test system: MDA-MB-231/Vector and MDA-MB-231/Bcl-2 cells; experiment: Clonogenic survival of MDA-MB-231 cells; format: cell-based, human
[6] = test system: MDA-MB-231/Vector and MDA-MB-231/Bcl-2 cells; experiment: Viability screening assay in MDA-MB-231 cells with high and low Bcl-2 (CellTiter Glo); format: cell-based, human; conditions: for Bcl-2 selective reduction in viability, MDA-MB-231/Bcl-2 vs MDA-MB-231/Vector: 10 μM, 10% serum; for Bcl-2 dependent reduction in viability, MDA-MB-231/Bcl-2 vs Vector: 10% FBS
Procedure: In one example, a triple negative breast cancer cell line, MDA-MB-231, was used for screening these libraries. […] At the end of the assay, cell viability was determined using the cell titer Glo assay. […] A hit was defined as a compound inducing more than 20% reduction in viability of MDA-MB-231/Bcl-2 cells, compared to vector controls (MDA-MB-231/Vector). In the next step these shortlisted small molecules were tested for their ability to convert the conformation of Bcl-2 into a pro-apoptotic one.
To screen for Bcl-2 selective compounds, MDA-MB-231 cells (MDA-MB-231/Vector and MDA-MB-231/Bcl-2) were plated at 4000 cells per well in a 96 well black opaque plate. The day after plating the cells, treatment from the library plates was done so as to add 1 μL of the compound into the cells, resulting in 10 μM concentration. For non-specific […], 25 nM of staurosporin was used. […] Post treatment viability was assessed by CellTiter Glo Cell Viability assay (Promega Inc., Madison, Wis.) as per manufacturer instructions.
Viability for test compounds in each cell line (MDA-MB-231/Vector and MDA-MB-231/Bcl-2) was normalized to their respective vehicle treatments. Compounds that had at least 20% less viability in the MDA-MB-231/Bcl-2 cell line than the MDA-MB-231/Vector cell line were selected as initial hits and shortlisted for revalidation. Revalidated compounds were reordered for further testing and characterization. All data analyses were performed using Microsoft Excel.

[7] = test system: MCF-7/Vector and MCF-7/Bcl-2 cells; experiment: Viability of MCF-7 cells with high and low Bcl-2; format: cell-based, human; conditions: 10% FBS
Procedure: MDA-MB-231 and MCF-7 breast cancer cell lines stably overexpressing Bcl-2 were generated via electroporation and subsequent clonal expansion in G418-containing media. MDA-MB-231 cell clones with sufficiently high expression of Bcl-2 (MDA-MB-231/Bcl-2) determined by western blotting was selected for screening along with their vector controls (MDA-MB-231/Vector). Similarly MCF-7 cells clones were selected for characterization of lead molecules.
Cell viability was determined using CellTiter Glo Luminescent Cell Viability Assay (Promega, Madison, Wis.) as per manufacturer instructions. DAPI stain was used to assess apoptosis. Colony forming assays were performed as described previously.

H460 cells = experiment: JC-1 staining of mitochondrial membrane potential; format: cell-based, human; conditions: 16 h, 10% FBS, 10 μM for MTX and BFC1103
Procedure: JC-1 was used to stain live cells undergoing treatment with MTX at 10 μM for 16 h and images taken with FITC and Rhodamine filters were overlayed. Cells stained orange have intact mitochondrial outer membrane and the ones turning green have compromised outer membrane indicating loss of membrane potential.
(§1) FIG. 17D JC-1 stain was used to stain live H460 cells that were treated with M BFC1108 for 16 h in 10% FBS containing medium and images taken with FITC and rhodamine filters were overlaid. Cells stained orange have intact mitochondrial outer membrane and the ones turning green have compromised outer membrane indicating loss of membrane potential.
as §1, with “JC-1” for “FIG. 17D JC-1”, “cells” for “cells that were”, “10 μM BFC1103” for “M BFC1108”

Bcl-2 = Bcl-2 (Homo sapiens, UniProt P10415); experiment: Bcl-2 conformational change by Bcl-2 BH3 domain antibody and flow cytometry; conditions: 10 μM, 10% serum
Procedure: MDA-MB231/Bcl-2 cells and H460 cells were exposed to MTX at 10 μM concentration for 24 h in a medium containing 10% serum. Change in Bcl-2 conformation was determined using Bcl-2 BH3 only anti-body followed by flow cytometric analysis.
Change in conformation of Bcl-2 was determined by using Bcl-2 BH3 antibody followed by flow cytometric analysis.
Change in conformation of Bcl-2 was determined by using Bcl-2 BH3 only antibody followed by flow cytometric analysis.
When there is a conformational change in Bcl-2 protein, the BH3 domain is exposed and is detected by the Bcl-2 BH3 domain antibody.

[8] = 10 μM, 48 h, colony formation for 2 weeks

Chain of Bcl-2 (P10415 whole entry, the tested form may be a part): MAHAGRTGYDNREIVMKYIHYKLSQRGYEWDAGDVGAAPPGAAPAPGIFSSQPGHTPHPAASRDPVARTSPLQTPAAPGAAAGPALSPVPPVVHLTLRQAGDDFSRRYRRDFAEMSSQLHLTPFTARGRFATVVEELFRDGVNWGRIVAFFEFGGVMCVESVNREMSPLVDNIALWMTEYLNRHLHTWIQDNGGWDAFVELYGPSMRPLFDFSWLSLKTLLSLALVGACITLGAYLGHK

## CCCCc1ccc(NC(=O)CN(Cc2ccccc2)S(C)(=O)=O)cc1 [BFC1103, N-2-benzyl-N-1-(4-butylphenyl)-N-2-(methylsulfo-nyl) glycinamide]
[1]
  Bax/Bak dependence of effect on MEF viability: wild type MEF cells, MEF cells without Bax or Bak expression had significant reduction in their viability compared to the double knockout (DKO) MEFs
[2]; 24 h, 10% FBS
  Viability of normal mammary epithelial cells MCF-10A: minimal effect on normal mammary epithelial cells (MCF-10A)
[3]
  Effect of Bcl-2 knockdown on viability effect in MDA-MB-468 cells: Suppression of Bcl-2 expression reduced the effect of BFC1103
[4]; 10 μM, 24 h, 10% serum
  Bcl-2 dependent effect on viability, Jurkat/Bcl-2 vs control: reduced the viability of Jurkat human T cell leukemia cells with high Bcl-2 expression, compared to control cells
[5]; [8]
  Clonogenic survival of MDA-MB-231 cells over-expressing Bcl-2 vs control cells: formed significantly fewer colonies, compared to control cells
[6]; 24 h
  Bcl-2 selective reduction in viability, MDA-MB-231/Bcl-2 vs MDA-MB-231/Vector: Bcl-2 dependent reduction in viability of MDA-MB-231 cells; also recorded: Bcl-2 selective induction of cell death
[6]; hypoxic conditions
  Viability of MDA-MB-231 with increased Bcl-2 vs control cells under hypoxic conditions: significant reduction in viability of MDA-MB-231 with increased Bcl-2 expression compared to the control cells
[7]; 10 μM, 24 h
  Bcl-2 dependent effect on viability, MCF-7/Bcl-2 vs MCF-7/Vector: reduced the viability of MCF-7 cells with high Bcl-2 levels, compared to Bcl-2 low expressing control cells
H460 cells
  Mitochondrial membrane potential (JC-1 dye): decrease in their mitochondrial outer membrane potential
Bcl-2; 48 h
  Change in Bcl-2 conformation (BH3 domain exposure) in MDA-MB-231/Bcl-2 cells: changed conformation of Bcl-2 of was detected in MDA-MB-231/Bcl-2 cells

## CN(Cc1cnc2nc(N)nc(N)c2n1)c1ccc(C(=O)N[C@@H](CCC(=O)O)C(=O)O)cc1 [MTX, (2S)-2-[[4-[(2,4 diaminopteridin-6-yl)methylmethylamino]benzoyl]amino] pentanedioc acid]
[1]
  Bax/Bak dependence of effect on MEF viability: viability of Bax^−/− Bak^−/− MEF (DKO) cells was not effected
[1]; read-out: Viability, Bak−/− MEF
  viability at 1 µM: ~40%
[1]; read-out: Viability, Bax−/− MEF
  viability at 1 µM: ~40%
[1]; read-out: Viable cells, wild type MEF
  viability at 1 µM: ~30%
[2]; similar concentrations of MTX as in cancer cells
  Viability of normal breast epithelial cells MCF-10A and HMEC: relatively unaffected
[3]; various concentrations, 24 h
  Effect of Bcl-2 knockdown on effect in MDA-MB-468 cells: Knockdown of Bcl-2 in MDA-MB-468 cells diminished the apoptotic effect of MTX
[4]; Bcl-2 low and high expressing Jurkat lymphoma cells treated for 72 hours with various concentrations
  Bcl-2 dependent effects in Jurkat Lymphoma cells: Yes
[4]; Homo sapiens, Jurkat lymphoma cells, 72 hours, n/d means no reduction was detected at concentrations tested, read-out: Lowest effective dose (minimal effective concentration that induced Bcl-2-dependent reduction in cell viability)
  minimal effective concentration: 0.01 µM
[4]; hypoxic conditions, 10% FBS, 24 h
  Viability of Jurkat/Bcl-2 vs Vector under hypoxic conditions: significant reduction in viability of Jurkat/Bcl-2 cells compared to their Vector control
[4]; supplemented with 1 μM of folic acid
  Bcl-2 dependent apoptosis with folate supplementation: Bcl-2 dependent apoptosis was still observed
[5]; 10 μM MTX, 24 h
  Reduction in colonies formed by MDA-MB-231/Bcl-2 cells compared to vector controls: 60%
[6]; 24 h
  Bcl-2 selective reduction in viability, MDA-MB-231/Bcl-2 vs MDA-MB-231/Vector: selectively induce more cell death in high-Bcl-2 expressing MDA-MB-231 cells
[6]; various concentrations, 24 h
  Bcl-2 dependent reduction in viability, MDA-MB-231/Bcl-2 vs Vector: reduced viability in MDA-MB-231/Bcl-2 cells significantly in comparison to the MDA-MB-231/Vector control cells
[7]; 10 μM, 24 h
  Bcl-2 dependent effect on viability, MCF-7/Bcl-2 vs MCF-7/Vector: Bcl-2 dependent effect of MTX was consistent in estrogen receptor (ER) positive MCF-7 cells over-expressing Bcl-2
H460 cells
  Mitochondrial membrane potential (JC-1 dye): decrease in their mitochondrial membrane potential
Bcl-2; 24 h
  Change in Bcl-2 conformation (BH3 domain exposure) in H460 cells: also observed in H460 cells
  Change in Bcl-2 conformation (BH3 domain exposure) in MDA-MB-231/Bcl-2 cells: considerable shift in the staining of MTX treated cells indicating change in the Bcl-2 conformation

## CCOc1ccccc1NC(=O)c1cc(Cl)ccc1NC(=O)c1ccc(OC)cc1 [BFC1108, 5-chloro-N-(2-ethoxyphenyl)-2-[(4-methoxybenzoyl)amino]-benzamide]
[1]
  Bax/Bak dependence of effect on MEF viability: no effect on viability in DKO MEFs, whereas Bax^−/− MEF and Bak^−/− MEF have diminished viability
[2]; 48 h, 10% serum
  Viability of normal mammary epithelial cells MCF-10A: No effect on the viability of MCF-10A cells
[3]
  Effect of Bcl-2 knockdown on viability effect in MDA-MB-468 cells: When Bcl-2 was knocked down, the cells were rescued from the effects of BFC1108
[4]; 48 h, 10% FBS
  Bcl-2 dependent effect on viability, Jurkat/Bcl-2 vs Jurkat/Vector: reduction in viability was seen compared to their Bcl-2 low-expressing control cells
[5]; [8]
  Effect on colony forming ability of low Bcl-2 expressing 231/Vector control cells: not seen
  Reduction in colony forming ability of MDA-MB-231/Bcl-2 cells compared to vehicle controls: 50%
[6]; 24 h
  Bcl-2 selective reduction in viability, MDA-MB-231/Bcl-2 vs MDA-MB-231/Vector: better Bcl-2 selective induction of cell death
[6]; 48 h
  Bcl-2 dependent reduction in viability, MDA-MB-231/Bcl-2 vs Vector: dose dependent reduction in viability of Bcl-2-high expressing cells (MDA-MB-231/Bcl-2), compared to their vector controls
[7]; 48 h
  Bcl-2 dependent effect on viability, MCF-7/Bcl-2 vs MCF-7/Vector: MCF-7 cells with high-Bcl-2 expression are more sensitive to BFC1108
H460 cells
  Mitochondrial membrane potential (JC-1 dye): decreased mitochondrial membrane potential
Bcl-2; 48 h
  Change in Bcl-2 conformation (BH3 domain exposure) in MDA-MB-231/Bcl-2 cells: changed conformation of Bcl-2 was detected
